According to PMC12867150, “A fungi-derived cyclic peptide enhances Th9-mediated antitumor immunity by targeting ZAP70 and SREBP1” (The Journal of Clinical Investigation, 2025):
Several values for one entry are separate records, joined by “and”; a condition that tells them apart may be missing. Identical values can stand only once. Counter-ions that a name gives are not always drawn.

Legend:
TNF-α in Th9 cells = test: Flow cytometry of TNF-α in Th9 cells in vitro (Figure 3F, 5I, 7C, S8M-N); format: cell-based, mouse; design: TNF expression in Th9 cells / TNF-α expression of Th9 cells: unit not given here; conditions: for TNF expression in Th9 cells: Figure 7C, one per column (n = 4); for TNF (flow cytometric quantification): Figure 5I, (n = 5); for TNF-α expression of Th9 cells: Supplemental Figure 8N
Experimental: (§1) Naive CD4^+ T cells were isolated from the spleens of C57BL/6J or CD45.1^+ OT-II mice using the MojoSort Mouse CD4 Naive T Cell Isolation Kit (BioLegend, catalog 480040), following the manufacturer’s protocol. Purified cells were cultured in RPMI-1640 medium supplemented with 10% FBS, 1% penicillin-streptomycin, and 0.1% β-mercaptoethanol (Gibco, catalog 21985023).
(§2) T cell polarization was initiated under plate-bound anti-CD3 (2 μg/mL, clone 17A2, BioXCell, catalog BE0002) and soluble anti-CD28 (1 μg/mL, clone 37.51, BioXCell, catalog BE0015-1) stimulation, with the addition of cytokines and neutralizing antibodies specific to each subset. For Th9 cells, these included IL-4 (10 ng/mL, Peprotech, catalog 400-04), TGF-β (1 ng/mL, EPOTO Biotech, catalog HF-2021), anti–IL-12 (5 μg/mL, clone C17.8, BioXCell, catalog BE0051), and anti–IFN-γ (10 μg/mL, clone XMG1.2, BioXCell, catalog BE0055); for Th1 cells, these included IL-12 (10 ng/mL, GenScript, catalog Z03211-50) and anti–IL-4 (5 μg/mL, clone 11B11, BioXCell, catalog BE0045); for Th2 cells, these included IL-4 (50 ng/mL), anti–IFN-γ (20 μg /mL), anti–IL-12 (5 μg/mL), Th17 cells: IL-6 (20 ng/mL, EPOTO Biotech, catalog MF-1006), TGF-β (1 ng/mL), IL-1β (10 ng/mL, Peprotech, catalog AF-211-11B), anti–IFN-γ (10 μg/mL), anti–IL-12 (5 μg/mL), and anti–IL-4 (5 μg/mL); and for Tregs, these included TGF-β (3 ng/mL). After 3 days of initial culture, cells were either collected for downstream assays or continued in extended culture with refreshed cytokines to maintain lineage commitment.
(§3) Details regarding staining panels (human and mouse), reagents (including clones and catalog numbers), acquisition settings, compensation/controls, and analysis procedures are provided in Supplemental Methods.
(§4) BioLegend, Cat. No. 422301 or Mouse TruStain FcX™, BioLegend, Cat. No. 101319) for 10 minutes at 4°C. For surface marker detection, cells were stained with fluorochrome-conjugated monoclonal antibodies in 96-well V-bottom plates and incubated on ice for 30 minutes. After staining, cells were washed twice and resuspended in FACS buffer for analysis.
(§5) Prior to intracellular cytokine staining, cells were restimulated for 4 hours with PMA (Absin, Cat. No. abs9107), ionomycin (Sigma-Aldrich, Cat. No. I0634), and brefeldin A (MedChemExpress, Cat. No. HY-16592). For intracellular cytokine staining, cells were first surface-stained as described above, then fixed and permeabilized using the BD Cytofix/Cytoperm™ kit (BD Biosciences, Cat. No. 554714) according to the manufacturer ’s protocol. Intracellular proteins were stained with directly conjugated antibodies targeting IL-9, IL-17a, IL-4, IFN-γ, TNF-α, FOXP3, p-ZAP70, Perforin, and […]
(§6) Antibodies used for mouse samples included those against IL-9 (PE, clone RM9A4, Biolegend, Cat. No. 514104), IFN-γ (PE, clone XMG1.2, Biolegend, Cat. No.
(§7) Cat. No. 103138), CD4 (APC/Cy7, clone E-AB-F1353UJ, Elabscience, Cat. No.
(§8) AF18028), CD8α (PerCP/Cy5.5, clone E-AB-F1104UJ, Elabscience, Cat. No. […]
(§9) clone E-AB-F1187UH, Elabscience, Cat. No. AF19854), TNF-α (BV421, clone MP6-XT22, Biolegend, Cat. No. 506328), FOXP3 (PE, clone FJK-16s, eBioscience, Cat. No.
(§10) Perforin (APC, clone S16009A, Biolegend, Cat. No. 154303) and Granzyme B (APC, […]
(§11) clone QA16A02, Biolegend, Cat. No. 372203). […]

CD69 on Th9 cells = test: Flow cytometry of CD69 on Th9 cells in vitro (Figure 5J, 7D); format: cell-based, mouse; design: CD69 expression in Th9 cells: unit not given here; conditions: for CD69 expression in Th9 cells: Figure 7D, one per column (n = 4); for CD69 expression in Th9 cells / CD69 (flow cytometric quantification): individual replicates; for CD69 (flow cytometric quantification): Figure 5J, (n = 5)
Experimental: as §1, §2, §3, §4, §5, §6, §7, §8, §9, §10, §11

human Th9 cells = test: Human Th9 differentiation, IL-9 by flow cytometry (Figure 8A-B, S9A); format: cell-based; conditions: for intracellular IL-9 expression in human Th9 cells: flow cytometry, Supplemental Figure 9A; for IL-9 production in human CD4⁺ T cells (flow cytometric analysis): Figure 8B, Th9-polarizing conditions, individual replicates, one per column (n = 4)
Experimental: Naive human CD4^+ T cells were isolated from PBMCs obtained from healthy donors using the EasySep Human Naive CD4^+ T Cell Isolation Kit II ([…] Technologies, catalog 17555), according to the manufacturer’s protocol. Isolated T cells were cultured in OptiVitro T Cell Medium SF (Excell Bio, catalog TE000-N022) supplemented with recombinant human IL-2 (100 U/mL, Novoprotein, catalog C013). T cell activation was achieved using plate-bound anti-CD3 (5 μg/mL) and soluble anti-CD28 antibodies (2 μg/mL).
For Th9 polarization, cultures were supplemented with IL-4 (10 ng/mL, PeproTech, catalog AF-200-04), TGF-β (1 ng/mL), and neutralizing anti–IFN-γ monoclonal antibody (10 μg/mL, clone B27, BioXcell, catalog BE0245). After 3 days of initial culture, cells were either collected for downstream assays or continued in extended culture with refreshed cytokines to maintain lineage commitment without antibodies. Th9 cells were collected at days 4, 5, and 6 for subsequent in vitro assays. For adoptive transfer studies, day 4–cultured Th9 cells were washed and prepared for intravenous injection.
as §3
MH9A4, Biolegend, Cat. No. 507605, PE/Cy7, clone MH9A4, Biolegend, Cat. No. […]
clone Mab11, Biolegend, Cat. No. 502908), Perforin (APC, clone dG9, Biolegend, Cat.
Flow cytometric acquisition was performed using a BD Fortessa or Cytek Aurora cytometer. Data were analyzed with FlowJo software (v10.8.1 or newer). Fluorescence compensation, isotype-matched controls, and fluorescence-minus-one (FMO) controls were applied as appropriate for multicolor panel validation. […]

[1] = single agent, 10 µM, individual replicates
[2] = EpA + fatostatin, result in words

`CCCc1cc(-c2nc(-c3ccc(C)cc3)cs2)ccn1` [fatostatin, fatostatin hydrobromide, reference compound] was tested, and the “TNF expression in Th9 cells” value (TNF-α in Th9 cells; [1]) was 2574 and 2507 and 2536 and 2484, the “CD69 expression in Th9 cells” value (CD69 on Th9 cells; single agent, 10 µM) was 39.9 and 41.1 and 41.2 and 39.2 and the “intracellular IL-9 expression in human Th9 cells” value (“intracellular IL-9 expression” for short) (human Th9 cells; replicate 1) was 23.3%. The “intracellular IL-9 expression” value (human Th9 cells; replicate 2) was 24.1%, the “intracellular IL-9 expression” value (human Th9 cells; replicate 3) was 23.7% and the “intracellular IL-9 expression” value (human Th9 cells; replicate 4) was 23.5%. The “IL-9 production, human EpA-Th9” value (human Th9 cells; with fatostatin, result in words) was “further augmented”.

With anteiso-C15 Leu7 surfactin [EpA] the TNF-α production (TNF-α in Th9 cells; [2]) was “elevated in the combination group”, the “MFI of TNF-α” value (TNF-α in Th9 cells; EpA-treated Th9 cells, individual replicates, n = 6) was 2286 and 2180 and 2244 and 2177 and 2115 and 2169 and the “TNF (flow cytometric quantification)” value (TNF-α in Th9 cells; EpA + ERKin combination, individual replicates) was 2696 and 2174 and 2281 and 2032 and 1920. The “TNF (flow cytometric quantification)” value (TNF-α in Th9 cells; EpA + MEKin combination, individual replicates) was 1415 and 1401 and 1417 and 1456 and 1441, the “TNF (flow cytometric quantification)” value (TNF-α in Th9 cells; single agent, individual replicates) was 2873 and 2973 and 3771 and 3384 and 2525 and the “TNF expression in Th9 cells” value (TNF-α in Th9 cells; EpA (10 µM) + Fatostatin (10 µM), individual replicates) was 3879 and 3735 and 3908 and 3188. The “TNF expression in Th9 cells” value (TNF-α in Th9 cells; [1]) was 2951 and 2896 and 2950 and 2779, the “TNF-α expression of Th9 cells” value (TNF-α in Th9 cells; MigR1, replicate 1) was 2796 and the “TNF-α expression of Th9 cells” value (TNF-α in Th9 cells; MigR1, replicate 2) was 2837. For the same compound, the “TNF-α expression of Th9 cells” value (TNF-α in Th9 cells; MigR1, replicate 3) was 2787, the “TNF-α expression of Th9 cells” value (TNF-α in Th9 cells; SREBP1, replicate 1) was 2060 and the “TNF-α expression of Th9 cells” value (TNF-α in Th9 cells; SREBP1, replicate 2) was 1962. For the same compound, the “TNF-α expression of Th9 cells” value (TNF-α in Th9 cells; SREBP1, replicate 3) was 1934, the “EpA-induced TNF-α increase (protein) upon SREBP1 overexpression” value (TNF-α in Th9 cells; result in words) was “markedly suppressed” and the CD69 expression (CD69 on Th9 cells; [2]) was “elevated in the combination group”. For the same compound, the “CD69 (flow cytometric quantification)” value (CD69 on Th9 cells; EpA + ERKin combination) was 27.9 and 23.5 and 24 and 26.9 and 24.1, the “CD69 (flow cytometric quantification)” value (CD69 on Th9 cells; EpA + MEKin combination) was 20.8 and 22.9 and 21.2 and 18.2 and 18.1 and the “CD69 (flow cytometric quantification)” value (CD69 on Th9 cells; single agent) was 59.4 and 133 and 54.7 and 74.6 and 155. The “CD69 expression in Th9 cells” value (CD69 on Th9 cells; EpA (10 µM) + Fatostatin (10 µM)) was 54.9 and 46.3 and 45.8 and 49.3, the “CD69 expression in Th9 cells” value (CD69 on Th9 cells; single agent, 10 µM) was 41.4 and 40.9 (2×) and 41.7 and the “IL-9 production in human CD4⁺ T cells (flow cytometric analysis)” value (human Th9 cells; Day5) was 43.3 and 42.8 and 42.9 and 42. For the same compound, the “IL-9 production in human CD4⁺ T cells (flow cytometric analysis)” value (human Th9 cells; Day6) was 34.5 and 32.5 and 32.7 and 34.1, the “IL-9 expression, human Th9” value (human Th9 cells; day 5 to day 6, result in words) was “significantly elevated IL-9 expression” and the “intracellular IL-9 expression” value (human Th9 cells; replicate 1) was 22%. The “intracellular IL-9 expression” value (human Th9 cells; replicate 2) was 24.8%, the “intracellular IL-9 expression” value (human Th9 cells; replicate 3) was 22.1% and the “intracellular IL-9 expression” value (human Th9 cells; replicate 4) was 24.3%.
